Details: for vapor or sublimation pressure: Liquid, Closed cell (Static) method; for mass density: Fluid (supercritical or subcritical phases), isochoric method

CC(C)O [propan-2-ol]
Details | vapor or sublimation pressure [kPa]
301.24 K | 7
314.26 K | 15
314.29 K | 15
314.52 K | 15
314.8 K | 16
315.05 K | 16
315.3 K | 16
315.42 K | 16
315.61 K | 16
315.8 K | 17
341.91 K | 57
342.03 K | 57
342.08 K | 57
342.2 K | 57
342.32 K | 58
342.49 K | 58
342.67 K | 58
342.79 K | 59
342.91 K | 59
343.03 K | 59
369.05 K | 169
369.13 K | 169
369.16 K | 169
369.28 K | 170
369.39 K | 171
369.5 K | 171
369.67 K | 172
369.84 K | 173
369.96 K | 174
370.07 K | 175
391.32 K | 358
391.5 K | 360
391.53 K | 360
391.54 K | 360
391.65 K | 362
391.76 K | 363
391.87 K | 364
391.98 K | 366
392.09 K | 367
392.2 K | 368
416.55 K | 732
416.65 K | 734
416.73 K | 736
416.76 K | 736
416.86 K | 739
416.97 K | 741
417.08 K | 743
417.18 K | 745
417.29 K | 747
417.4 K | 749
417.5 K | 756
442.12 K | 1367
442.14 K | 1368
442.23 K | 1371
442.33 K | 1374
442.43 K | 1377
442.54 K | 1381
442.64 K | 1383
442.74 K | 1386
442.85 K | 1389
463.48 K | 2136
463.56 K | 2140
463.58 K | 2141
463.78 K | 2149
463.83 K | 2152
463.97 K | 2158
464.18 K | 2166
464.27 K | 2171
464.42 K | 2177
464.97 K | 2201
465.27 K | 2213
465.34 K | 2217
468.1 K | 2330
482.51 K | 3081
482.6 K | 3085
482.7 K | 3089
482.72 K | 3090
482.8 K | 3093
482.89 K | 3098
482.99 K | 3102
483.09 K | 3106
483.18 K | 3110
500.85 K | 4213
500.95 K | 4219
501.04 K | 4224
501.08 K | 4226
501.14 K | 4229
501.23 K | 4235
501.33 K | 4240
501.42 K | 4245
501.53 K | 4251
501.62 K | 4256
501.81 K | 4267
501.9 K | 4272
503.92 K | 4428
504.02 K | 4438
504.03 K | 4436
504.11 K | 4366
504.31 K | 4456
504.5 K | 4470
504.59 K | 4477
504.98 K | 4504
505.06 K | 4521
505.08 K | 4522
505.27 K | 4536
505.37 K | 4544
506.43 K | 4667
506.53 K | 4675
506.61 K | 4648
506.62 K | 4682
506.72 K | 4690
506.82 K | 4697
506.96 K | 4708
506.97 K | 4709
507.11 K | 4720
507.2 K | 4727
507.3 K | 4735
507.4 K | 4743
507.5 K | 4750
507.59 K | 4757
507.69 K | 4765
507.79 K | 4773
507.89 K | 4781
508.04 K | 4793
508.16 K | 4803

Details | mass density [kg/m3]
508.16 K, 4803 kPa | 329.2
508.18 K, 4804 kPa | 329.2
508.28 K, 4813 kPa | 329.2
508.37 K, 4822 kPa | 329.2
508.47 K, 4831 kPa | 329.2
508.57 K, 4840 kPa | 329.2
508.67 K, 4849 kPa | 329.2
508.76 K, 4858 kPa | 329.2
509.35 K, 4911 kPa | 329.2
509.45 K, 4920 kPa | 329.2
509.5 K, 5095 kPa | 329.2
509.55 K, 4929 kPa | 329.2
509.64 K, 4938 kPa | 329.2
509.79 K, 4951 kPa | 329.2
509.99 K, 4967 kPa | 329.2
510.14 K, 4981 kPa | 329.2
510.23 K, 4990 kPa | 329.2
510.33 K, 4999 kPa | 329.2
510.48 K, 5012 kPa | 329.2
510.93 K, 5271 kPa | 329.2
516.9 K, 5603 kPa | 329.2
516.99 K, 5611 kPa | 329.2
517.08 K, 5619 kPa | 329.2
517.27 K, 5637 kPa | 329.2
521.87 K, 6056 kPa | 329.2
521.96 K, 6064 kPa | 329.2
522.14 K, 6080 kPa | 329.2
522.33 K, 6397 kPa | 329.2
522.42 K, 6405 kPa | 329.2
522.51 K, 6414 kPa | 329.2
522.6 K, 6495 kPa | 329.2

From the NIST ThermoML archive (doi:10.1016/j.jct.2018.12.009)
